According to patent US11466006B2, “Dual selective PI3 delta and gamma kinase inhibitors” (Rhizen Pharmaceuticals SA, priority 2013, dated 2022):

Tests used:
[1] = system: male guinea pigs; experiment: Ovalbumin induced pulmonary eosinophilia in male guinea pigs; format: in vivo, guinea pig; conditions: sensitized guinea pigs, 0.3, 1, 3 mg/kg oral
Protocol: After the quarantine period, 0.3 mL of blood samples was collected from orbital vein by retro-orbital plexus method from each individual animal and analysed on a cell analyser (ADVIA 2120, Siemens). Based on their total cell count, guinea pigs were randomized and divided into various groups. Ear pinna was marked with an indelible marking pen for identification. On day 0, weights were recorded and animals were sensitized with 50 μg of Ovalbumin (OVA) and 10 mg of alum solution (1 mL) intraperitoneally. On day 7 and day 14, the above sensitization protocol was repeated. […] On day 19, 20, and 21, after the treatment with test compound by oral gavage, 30 mins later animals were exposed to 0.5% w/v, 0.5% and 1% Ovalbumin challenge respectively. Control & sham group animals were treated with 0.5% w/v methyl cellulose (vehicle). Sham control groups were sensitized with 10 mg of alum on day 0, 7 & 14 and exposed to saline solution (SAL) with the same nebulization rate on day 19. 20 and 21. Twenty hours after last OVA challenge, airway hyperresponsiveness was measured by whole body plethysmograph against cumulative doses of methacholine challenge (75, 100, 125 & 150 μg/ml), after measuring the airway response, blood samples and BAL fluid was collected. Samples were analysed for total cell count by using neubuear chamber under microscope and differential leukocyte count was done manually.

[2] = target: T1, PI3K alpha (Mus musculus, UniProt P42337); experiment: PDGF induced Akt phosphorylation in 3T3 cells (PI3Kα selectivity); format: cell-based
T1 construct: endogenous in cells; host or cells: 3T3 fibroblasts
T1 sequence (P42337 whole entry): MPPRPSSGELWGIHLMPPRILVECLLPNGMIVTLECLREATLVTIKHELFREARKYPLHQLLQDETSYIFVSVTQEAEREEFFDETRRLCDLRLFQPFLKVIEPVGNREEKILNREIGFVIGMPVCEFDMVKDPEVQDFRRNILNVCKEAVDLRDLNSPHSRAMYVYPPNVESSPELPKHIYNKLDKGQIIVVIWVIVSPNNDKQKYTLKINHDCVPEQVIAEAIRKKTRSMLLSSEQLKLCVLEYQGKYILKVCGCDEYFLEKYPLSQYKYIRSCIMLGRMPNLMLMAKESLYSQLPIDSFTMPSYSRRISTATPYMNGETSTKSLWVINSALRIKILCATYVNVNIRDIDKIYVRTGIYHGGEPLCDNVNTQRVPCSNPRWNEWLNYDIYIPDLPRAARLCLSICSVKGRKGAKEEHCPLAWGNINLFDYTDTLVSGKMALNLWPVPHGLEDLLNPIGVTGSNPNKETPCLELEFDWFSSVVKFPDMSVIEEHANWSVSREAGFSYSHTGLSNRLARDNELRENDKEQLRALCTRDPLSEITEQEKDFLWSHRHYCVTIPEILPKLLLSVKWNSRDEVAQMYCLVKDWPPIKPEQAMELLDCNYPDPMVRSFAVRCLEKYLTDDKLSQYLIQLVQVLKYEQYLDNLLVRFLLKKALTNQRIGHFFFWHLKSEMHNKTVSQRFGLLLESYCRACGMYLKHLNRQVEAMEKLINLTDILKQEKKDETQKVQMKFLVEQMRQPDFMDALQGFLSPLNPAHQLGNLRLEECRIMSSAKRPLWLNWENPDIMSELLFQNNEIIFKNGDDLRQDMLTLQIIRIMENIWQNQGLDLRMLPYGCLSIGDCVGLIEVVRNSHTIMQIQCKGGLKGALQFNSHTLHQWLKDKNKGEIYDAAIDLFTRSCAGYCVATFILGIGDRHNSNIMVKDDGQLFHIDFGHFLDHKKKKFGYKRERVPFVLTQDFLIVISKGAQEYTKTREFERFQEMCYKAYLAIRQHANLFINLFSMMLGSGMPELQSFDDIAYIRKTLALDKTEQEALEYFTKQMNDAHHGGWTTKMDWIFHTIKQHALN
T1 sequence (P26450 whole entry partner): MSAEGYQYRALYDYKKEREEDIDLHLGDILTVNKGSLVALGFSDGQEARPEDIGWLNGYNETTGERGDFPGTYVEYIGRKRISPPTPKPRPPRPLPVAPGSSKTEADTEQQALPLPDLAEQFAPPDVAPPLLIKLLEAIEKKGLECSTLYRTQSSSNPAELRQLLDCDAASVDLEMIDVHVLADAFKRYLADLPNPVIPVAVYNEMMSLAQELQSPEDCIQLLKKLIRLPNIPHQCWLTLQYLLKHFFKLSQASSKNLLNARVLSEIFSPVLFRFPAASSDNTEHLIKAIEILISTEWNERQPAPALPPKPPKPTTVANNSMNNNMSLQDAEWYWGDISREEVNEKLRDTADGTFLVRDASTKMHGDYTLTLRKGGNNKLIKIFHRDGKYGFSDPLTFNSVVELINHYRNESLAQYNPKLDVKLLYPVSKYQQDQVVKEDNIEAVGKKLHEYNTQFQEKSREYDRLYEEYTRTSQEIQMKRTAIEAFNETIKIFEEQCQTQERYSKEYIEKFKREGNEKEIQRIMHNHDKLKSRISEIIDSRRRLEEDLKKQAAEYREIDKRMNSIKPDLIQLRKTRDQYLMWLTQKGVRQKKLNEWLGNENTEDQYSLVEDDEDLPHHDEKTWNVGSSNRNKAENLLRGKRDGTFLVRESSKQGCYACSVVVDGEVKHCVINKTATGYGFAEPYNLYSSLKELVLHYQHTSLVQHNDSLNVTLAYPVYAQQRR
Protocol: The objective of this study was to determine the effect of Compound A1 on PI3Kα kinase mediated AktS473 phosphorylation in PDGF induced 3T3 fibroblasts. • 3T3 cells were treated with desired concentrations of the test compound for 15 min. 1 ml of 2× PDGF was added such that the final concentration was 20 ng/ml and incubated for 10 min. • Media was discarded and washed with 1 ml of ice-cold 1× PBS. • 250 μl of cell lysis buffer was added and incubated on ice for 30 min. • Samples were centrifuged and supernatant was collected and stored at −80° C. until analysis. • Samples were analyzed by Western Blotting using pAKT (S473) as the primary and anti-rabbit IgG-HRP as a secondary antibody. • Intensity of the bands was determined using ImageJ 1.42q (NIH, USA) and normalized to Actin (loading control). Data was plotted using GraphPad Prism (Version 5.02).

[3] = system: Lewis rats; experiment: Collagen induced arthritis in Lewis rats; format: in vivo, rat
[4] = system: male Balb/c mice; experiment: Acute cigarette smoke induced cell infiltration in male Balb/c mice; format: in vivo, mouse; conditions: 0.3, 1, or 3 mg/kg/BID, cigarette smoke exposed mice
Description: Animals (male Balb/c mice) are to be acclimatized for seven days prior to the start of the experiment. Animals are then to be randomly distributed to various groups based on their body weights. On day 1, mice is to be administered test compound or vehicle by oral/intranasal route and after 1 hr test compound administration animals are to be placed in whole body exposure box. On day 1 and d2 mice are exposed to the mainstream smoke of 6 cigarettes and of 8 cigarettes on day 3, and of 10 cigarettes on day 4. […] The total number of white blood cells is to be determined in BAL fluid and blood using a blood cell counter and adjusted to 1×10^6 cell/ml. Differential cell count is calculated manually. […] The number of each cell type among 300 white blood cells in the cell smear are to be determined and expressed as a percentage, and the number of neutrophils and macrophages in each BAL fluid are to be calculated. • Results: As depicted in FIGS. 7A and 7B, Compound A1 reduced macrophages and neutrophil infiltration into BALF thereby indicating a therapeutic role in chronic obstructive pulmonary diseases Assay 16: Ovalbumin-Induced Nasal Eosinophil and Neutrophil Accumulation in Mice

[5] = target: T2, PI3K delta (Homo sapiens, UniProt O00329); experiment: Anti-IgM induced B-cell proliferation (PI3Kδ selectivity); format: cell-based; conditions: read-out: Cellular IC50 PI3K delta (anti-IgM induced human B-cell proliferation)
T2 construct: Isolated B-cells were re-suspended to 1.0×10^6 cells per ml; endogenous in cells; host or cells: isolated human B cells
T2 sequence (O00329 whole entry): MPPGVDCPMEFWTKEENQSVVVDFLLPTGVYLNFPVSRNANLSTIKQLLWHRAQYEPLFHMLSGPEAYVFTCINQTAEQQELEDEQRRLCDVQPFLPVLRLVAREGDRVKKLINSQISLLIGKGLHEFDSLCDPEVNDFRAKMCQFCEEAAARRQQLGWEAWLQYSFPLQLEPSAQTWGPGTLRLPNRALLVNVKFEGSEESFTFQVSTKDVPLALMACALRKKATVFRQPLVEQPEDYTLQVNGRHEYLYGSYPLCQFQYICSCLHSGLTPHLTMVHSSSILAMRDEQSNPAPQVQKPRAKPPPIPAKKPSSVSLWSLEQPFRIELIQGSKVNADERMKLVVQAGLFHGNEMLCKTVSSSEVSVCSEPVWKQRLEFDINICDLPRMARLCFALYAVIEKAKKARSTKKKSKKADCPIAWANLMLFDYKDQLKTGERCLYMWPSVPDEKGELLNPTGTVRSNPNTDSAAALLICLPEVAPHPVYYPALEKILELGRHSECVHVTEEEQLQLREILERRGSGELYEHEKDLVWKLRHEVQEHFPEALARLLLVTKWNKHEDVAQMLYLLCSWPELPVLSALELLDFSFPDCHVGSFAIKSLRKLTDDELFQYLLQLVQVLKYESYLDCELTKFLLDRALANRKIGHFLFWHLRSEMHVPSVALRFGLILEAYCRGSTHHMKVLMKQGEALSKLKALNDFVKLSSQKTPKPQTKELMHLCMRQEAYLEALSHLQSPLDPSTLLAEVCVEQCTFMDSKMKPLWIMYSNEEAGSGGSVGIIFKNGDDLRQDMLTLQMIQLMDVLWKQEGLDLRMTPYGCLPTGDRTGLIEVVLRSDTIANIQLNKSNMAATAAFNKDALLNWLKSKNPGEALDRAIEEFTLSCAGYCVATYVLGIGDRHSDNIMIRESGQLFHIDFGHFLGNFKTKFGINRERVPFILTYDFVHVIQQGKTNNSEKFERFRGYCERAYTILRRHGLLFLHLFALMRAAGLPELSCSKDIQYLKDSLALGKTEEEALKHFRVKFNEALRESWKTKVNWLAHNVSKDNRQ
T2 sequence (P27986 whole entry partner): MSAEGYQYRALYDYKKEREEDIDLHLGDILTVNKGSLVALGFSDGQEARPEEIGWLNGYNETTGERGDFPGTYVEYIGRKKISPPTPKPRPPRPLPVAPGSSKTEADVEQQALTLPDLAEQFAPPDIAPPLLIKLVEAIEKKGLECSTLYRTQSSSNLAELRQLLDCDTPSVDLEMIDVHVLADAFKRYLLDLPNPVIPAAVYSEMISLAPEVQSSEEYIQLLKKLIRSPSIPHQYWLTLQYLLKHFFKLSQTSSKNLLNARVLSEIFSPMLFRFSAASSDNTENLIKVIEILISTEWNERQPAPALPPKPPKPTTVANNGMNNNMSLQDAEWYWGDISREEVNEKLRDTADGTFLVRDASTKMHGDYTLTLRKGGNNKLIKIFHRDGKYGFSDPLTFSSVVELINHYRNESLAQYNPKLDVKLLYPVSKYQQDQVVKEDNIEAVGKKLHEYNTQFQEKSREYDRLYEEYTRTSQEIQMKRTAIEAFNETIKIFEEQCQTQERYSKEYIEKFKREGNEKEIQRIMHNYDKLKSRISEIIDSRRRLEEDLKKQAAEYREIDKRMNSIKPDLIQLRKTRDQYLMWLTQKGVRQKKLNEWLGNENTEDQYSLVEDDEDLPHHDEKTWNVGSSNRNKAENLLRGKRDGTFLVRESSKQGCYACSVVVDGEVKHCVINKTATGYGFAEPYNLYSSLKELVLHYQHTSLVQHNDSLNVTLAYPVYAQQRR
Protocol: The objective of this study was to assess the inhibitory potential of Compound A1 on anti-IgM induced human B-cell proliferation.
• Isolated B-cells were re-suspended to 1.0×10^6 cells per ml. 100 μl of cell suspension was added to each well of a 96-well plate. Triplicates were maintained. • 50 μl of drug dilution was added and mixed well. A DMSO blank and inducer blank were maintained. • Treated plate was incubated for 30 min at 37° C., 5% CO2 and then 50 μl of 4× inducer was added and mixed by pipetting. • Plate was incubated at 37° C., 5% CO2 for 72 h. • Media was aspirated and 150 μl of DMSO was added to dissolve the formazan crystals. • Absorbance was read at A560 and A640 nm.

[6] = target: T3, PI3K gamma (Mus musculus, UniProt Q9JHG7); experiment: c5a induced AktS473 phosphorylation in RAW 264.7 macrophages (PI3Kγ selectivity); format: cell-based; conditions: read-out: Cellular IC50 PI3K gamma (c5a induced pAKT in RAW macrophages)
T3 construct: endogenous in cells; host or cells: RAW 264.7 macrophages
T3 sequence (Q9JHG7 whole entry): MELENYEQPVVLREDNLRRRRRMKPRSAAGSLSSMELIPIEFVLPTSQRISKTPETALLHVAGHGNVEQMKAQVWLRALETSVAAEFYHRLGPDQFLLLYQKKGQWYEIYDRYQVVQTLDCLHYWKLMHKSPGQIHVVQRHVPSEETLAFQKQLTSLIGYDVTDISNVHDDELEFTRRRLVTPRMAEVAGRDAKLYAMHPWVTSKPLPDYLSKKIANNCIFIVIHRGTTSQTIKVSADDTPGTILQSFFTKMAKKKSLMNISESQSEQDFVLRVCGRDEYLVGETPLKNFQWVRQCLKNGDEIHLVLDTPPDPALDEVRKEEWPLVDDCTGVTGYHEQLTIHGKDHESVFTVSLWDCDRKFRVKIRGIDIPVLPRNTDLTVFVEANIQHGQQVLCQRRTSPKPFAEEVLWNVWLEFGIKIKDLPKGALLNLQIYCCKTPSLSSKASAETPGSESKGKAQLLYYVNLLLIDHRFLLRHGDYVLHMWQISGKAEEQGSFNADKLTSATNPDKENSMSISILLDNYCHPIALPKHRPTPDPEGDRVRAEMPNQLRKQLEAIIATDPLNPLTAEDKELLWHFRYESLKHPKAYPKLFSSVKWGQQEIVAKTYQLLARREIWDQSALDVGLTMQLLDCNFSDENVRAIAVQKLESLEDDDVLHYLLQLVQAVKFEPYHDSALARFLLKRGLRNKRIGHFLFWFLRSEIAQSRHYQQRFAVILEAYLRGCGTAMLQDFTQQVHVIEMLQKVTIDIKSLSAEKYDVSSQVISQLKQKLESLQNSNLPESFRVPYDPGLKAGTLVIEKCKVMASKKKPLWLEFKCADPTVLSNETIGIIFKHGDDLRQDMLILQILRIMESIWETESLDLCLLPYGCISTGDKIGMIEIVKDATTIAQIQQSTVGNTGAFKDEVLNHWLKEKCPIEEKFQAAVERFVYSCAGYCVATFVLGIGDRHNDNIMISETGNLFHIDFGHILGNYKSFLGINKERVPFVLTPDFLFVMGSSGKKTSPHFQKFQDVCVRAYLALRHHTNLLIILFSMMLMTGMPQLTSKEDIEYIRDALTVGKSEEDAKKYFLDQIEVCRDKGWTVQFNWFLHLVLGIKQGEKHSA
Protocol: The objective of this study was to determine the effect of Compound A1 on PI3Kγ kinase mediated c5a induced AktS473 phosphorylation in RAW 264.7 macrophages. • RAW 264.7 cells were treated with desired concentrations of the test compound for 15 min. 1 ml of 2× c5a was added such that the final concentration was 50 ng/ml and incubated for 15 min. • Media was discarded and washed with 1 ml of ice-cold 1× PBS. • 250 μl of cell lysis buffer was added and incubated on ice for 30 min. • Samples were centrifuged and supernatant was stored at −80° C. until analysis • Samples were analyzed by Western Blotting using pAKT (S473) as the primary and anti-rabbit IgG-HRP as a secondary antibody. • Intensity of the bands was determined using ImageJ 1.42q (NIH, USA) and normalized to Actin (loading control). Data was plotted using GraphPad Prism (Version 5.02).

inhibition of PDGF induced AktS473 phosphorylation ([2]; at 10 μM, 3T3 fibroblasts): No inhibition | IC50 ([2]; read-out: Cellular IC50 PI3K alpha (PDGF induced pAKT in 3T3 fibroblasts)): > 10000 nM | IC50 [5]: 38.1 nM | IC50 [6]: 22.3 nM
Structure (SMILES): CC[C@H](Nc1ncnc2[nH]cnc12)c1oc2ccccc2c(=O)c1-c1cccc(F)c1 [Compound A1, (S)-2-(1-(9H-purin-6-ylamino)propyl)-3-(3-fluorophenyl)-4H-chromen-4-one]
airway hyperresponsiveness against methacholine challenge [1]: significant dose dependent reduction | eosinophil infiltration into the bronchoalveolar lavage fluid [1]: significant dose dependent reduction | histological analysis of joints at study end ([3]; 15 mg/kg): complete structural preservation | individual and summed histopathological scores for knee and ankle ([3]; 15 mg/kg/BID): significant reduction | reduction of knee and ankle swelling ([3]; rat CIA model, dosed therapeutically, oral): significant efficacy | macrophages and neutrophil infiltration into BALF [4]: reduced
